Patent US6331555A, “Treatment of platelet derived growth factor related disorders such as cancers” (priority 1999, dated 2001)
Several values for one entry are separate records, joined by “and”; a condition that tells them apart may be missing. Identical values can stand only once. Like-named read-outs stand apart in the source and are kept apart here.

Experiments:
[1] = tested on: Platelet-derived growth factor-dependent tyrosine phosphorylation; settings: intact cells; cited from earlier work
[2] = tested on: A431 cells; settings: cited from earlier work
[3] = tested on: U1242 cells; experiment: Cytotoxicity in U1242 cells, MTT; format: cell-based, human; settings: Homo sapiens, read-out: CYTOXICITY MTT U1242 LD50; heading: CYTOXICITY MTT U1242 LD50
Protocol: (§1) The cytotoxicity of each drug was also determined. The cells were plated as described above. Following incubation with drug, cell survival was measured by an MTT assay as described by Mossman J. Immunol. Methods 65:55-63 (1983), or by measuring the amount of LDH released (Korzeniewski and Callewaert, J. Immunol. Methods 64:313 (1983); Decker and Lohmann-Matthes, J. Immunol. Methods 115:61 (1988) .

[4] = molecular target: PDGFR (Homo sapiens, UniProt P09619); experiment: PDGF-stimulated receptor phosphorylation in U1242 cells, ELISA; format: cell-based; set-up: U1242 (PDGF-β receptor); host or cells: U1242 MG glioma cells; settings: 100 ng/ml PDGF-BB; read-out: ELISA P-TYR U1242 IC50
Protocol: (§2) For ELISA assays, cells were grown to 80-90% confluency in growth medium and seeded in 96-well tissue culture plates in 0.5% serum at 25,000 to 30,000 cells per well. After overnight incubation in 0.5% serum-containingmedium, cells were changed to serum-free medium and treated with test compound for 2 hr in a 5% CO2, 37° C. incubator. Cells were then stimulated with ligand for 5-10 min followed by lysis with HNTG (20 mM Hepes, 150 mM NaCl, 10% glycerol, 5 mM EDTA, 5 mM Na3 VO4 0.2% Triton X-100, and 2 mM NaPyr). […] Lysates were incubated with shaking for 1 hr at room temperature. The plates were washed with TBST four times and then incubated with polyclonol anti-phosphotyrosine antibody at room temperature for 30 min. Excess anti-phosphotyrosine antibody was removed by rinsing the plate with TBST four times. Goat anti-rabbit IgG antibody was added to the ELISA plate for 30 min at room temperature followed by rinsing with TBST four more times.
U1242 MG cells were plated in 96-well plates at a concentration of 5×10^4 cells/well in cultured media containing 0.5% FBS. The cells were incubated for 24 hours. The cells were then treated with a particular compound for 2 hours followed by the addition of 100 ng/ml PDGF-BB and incubation for 10 minutes.
Cells were lysed in 0.2 M Hepes, 0.15 M NaCl, 10% V/V glycerol, 0.04% Triton X-100, 5 mM EDTA, 5 MM Na^+ vanadate and […] Na^+ pyrophosphate. Cell lysates were then added to an ELISA plate coated with an anti-PDGF receptor antibody (Genzyme). ELISA plates were coated at […] of antibody/well in […] of PBS for 18 hours at 4° C. prior to the addition of the lysate.
The lysate was incubated in the coated plates for 1 hour and then washed four times in TBST (35 mM Tris-HCl pH 7.0, 0.15 M NaCl, 0.1% Triton X-100). Anti-phosphotyrosine antibody ([…] in PBS) was added and the mixture was incubated for 30 minutes at room temperature. The wells were then washed four times in TBST, a secondary antibody conjugated to POD (TAGO) was added to each well, and the treated wells were incubated for 30 minutes at room temperature. The wells were then washed four times in TBST, ABTS/H2 O2 solution was added to each well and the wells were incubated for two minutes. Absorbance was then measured at 410 nm.

[5] = tested on: C6 cells; experiment: C6 SRB growth assay; format: cell-based, rat; settings: Rattus norvegicus, C6; read-out: C6 SRB IC50
[6] = C6 glioma SC xenograft in mice; format: in vivo; settings: rat, in vivo, ip
Protocol: (§3) Cell lines were grown in appropriate medium (see Appendix 1). Cells were harvested at or near confluency with 0.05% Trypsin-EDTA and pelleted at 450×g for 10 min. Pellets were resuspended in sterile PBS or media (without FBS) to a particular concentration and the cells were implanted into the hindflank of mice. Tumor growth was measured over 3 to 6 weeks using venier calipers. Tumor volumes were calculated as a product of length×width×height unless otherwise indicated. P values were calculated using the Students' t-test.
(§4) C6 and SKOV-3(T) cells were grown in culture, as described in "cell growth" above, and implanted into the hind flank of a female Balb/c nu/nu mouse at 3×10^6 cells (for C6 experiments), or 1×10^7 cells (for SKOV-3 experiments) in […] of PBS on Day 0. U87MG, U118MG or U373MG human glioblastoma cells (obtained from the ATCC), or A4312 were also implanted into athymic mice. […] Tumors were measured using venier calipers and tumor volume was calculated as a product of tumor length, width, and height.

[7] = tested on: C6 glioma cells; experiment: C6 glioma SC xenograft in mice; format: in vivo
Protocol: as §3, §4

[8] = molecular target: T1, PDGF-R (U1242) (Homo sapiens, UniProt P09619); experiment: U1242 kinase (PDGF-R activity); format: cell-based
T1 construct: U1242 (PDGF-β receptor); host or cells: U1242 MG glioma cells
Protocol: (§5) For western blotting, cells were plated in 2 mL growth medium into 6-well dishes (500,000 cells per well) and allowed to attach overnight. […] The plates were then incubated overnight at 37° C., ambient CO2. […] After a 7 min incubation at room temperature with ligand, the plates were put on ice and washed three times with 1 mL ice-cold PBS plus 1 mM orthovanadate. Lysis was achieved by pipetting cells in 0.5 mL of buffer containing 50 mM Tris, pH 7.4, 10% glycerol, 1% NP-40, 2 mM EDTA, 1 mM sodium vanadate (Na3 VO4), 10 mM pyrophosphate, 1 mM PMSF, […]. A 300 μL aliquot of each lysate was immediately added to 100 μL 4×Laemmli sample buffer ([…] Tris pH 6.9, 20% glycerol, 7% SDS, 5 mM EDTA, 5% β-mercaptoethanol) containing phosphatase inhibitors, 2 mM Na3 VO4 and 10 mM pyrophosphate. Samples were boiled for 5 min, frozen in dry ice-ethanol, and stored at -80° C. […] The integrity of the protein-to-membrane transfer was determined by staining with 1% Ponceau S in 5% acetic acid for 5 min. After destaining in several distilled water rinses, the membrane was soaked overnight in blocking buffer containing 5% milk in Tris-buffered saline, 0.05% Tween 20. Phosphotyresine was detected by incubating the membrane (1 hr at room temperature) with an anti-phosphotyosine antiserum diluted in blocking buffer at 1:3000. […] The antibodies were visualized using ECL reagent from Amersham and by exposure to Fuji RX film.
as §2, with “incubator.” for “incubator. Cells were then stimulated with ligand for 5-10 min followed by lysis with HNTG (20 mM Hepes, 150 mM NaCl, 10% glycerol, 5 mM EDTA, 5 mM Na3 VO4 0.2% Triton X-100, and 2 mM NaPyr).”
PDGF-R activity, C6 SRB, and in vivo efficacy were measured using the procedures described in the appendices above.

[9] = LD10; settings: in vivo
[10] = tested on: U1242 cells; experiment: Cytotoxicity in U1242 cells, LDH; format: cell-based; settings: Homo sapiens, read-out: CYTOXICITY LDH U1242 LD50; heading: CYTOXICITY LDH U1242 LD50
Protocol: as §1

[11] = tested on: PDGFR; experiment: Receptor tyrosine kinase inhibition, PDGFR; format: cell-based; settings: W = done in Western assay; read-out: PDGFR IC50 (W)
Protocol: as §5
as §2, with “incubator.” for “incubator. Cells were then stimulated with ligand for 5-10 min followed by lysis with HNTG (20 mM Hepes, 150 mM NaCl, 10% glycerol, 5 mM EDTA, 5 mM Na3 VO4 0.2% Triton X-100, and 2 mM NaPyr).”
The ability of different compound to inhibit different receptor tyrosine kinases was tested.

[12] = tested on: PDGF receptor; settings: cited from earlier work
[13] = tested on: PDGF α-receptor; settings: high concentrations; cited from earlier work
[14] = tested on: PDGF β-receptor; settings: cited from earlier work
[15] = W = done in Western assay, read-out: U1242 KINASE IC50 (W)

T1 sequence (P09619 33-1106): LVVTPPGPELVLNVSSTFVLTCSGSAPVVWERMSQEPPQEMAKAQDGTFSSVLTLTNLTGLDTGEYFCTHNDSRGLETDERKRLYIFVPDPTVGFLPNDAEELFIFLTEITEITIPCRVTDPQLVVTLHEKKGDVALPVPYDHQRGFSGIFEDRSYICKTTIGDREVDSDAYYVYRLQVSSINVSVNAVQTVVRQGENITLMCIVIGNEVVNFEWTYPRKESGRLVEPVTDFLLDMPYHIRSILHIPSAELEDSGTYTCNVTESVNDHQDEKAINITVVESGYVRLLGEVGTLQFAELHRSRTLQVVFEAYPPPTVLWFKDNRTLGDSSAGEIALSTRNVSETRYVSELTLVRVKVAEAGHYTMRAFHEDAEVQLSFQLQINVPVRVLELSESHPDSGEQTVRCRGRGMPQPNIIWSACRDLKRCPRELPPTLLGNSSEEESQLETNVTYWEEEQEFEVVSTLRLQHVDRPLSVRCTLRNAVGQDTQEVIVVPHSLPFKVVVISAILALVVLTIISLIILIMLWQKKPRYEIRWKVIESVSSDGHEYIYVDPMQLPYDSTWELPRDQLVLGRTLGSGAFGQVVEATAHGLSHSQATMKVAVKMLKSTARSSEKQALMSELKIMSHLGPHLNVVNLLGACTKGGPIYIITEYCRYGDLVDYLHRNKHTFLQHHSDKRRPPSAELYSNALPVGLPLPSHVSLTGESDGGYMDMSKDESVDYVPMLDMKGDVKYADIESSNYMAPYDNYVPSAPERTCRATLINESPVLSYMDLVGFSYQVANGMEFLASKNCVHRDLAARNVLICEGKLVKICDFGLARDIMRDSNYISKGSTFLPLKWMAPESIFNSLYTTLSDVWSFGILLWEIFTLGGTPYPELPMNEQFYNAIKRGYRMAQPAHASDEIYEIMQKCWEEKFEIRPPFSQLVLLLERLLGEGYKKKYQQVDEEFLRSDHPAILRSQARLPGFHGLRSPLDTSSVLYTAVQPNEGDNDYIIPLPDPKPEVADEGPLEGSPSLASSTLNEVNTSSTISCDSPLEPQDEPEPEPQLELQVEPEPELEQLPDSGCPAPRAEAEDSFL
Chain of PDGFR (Homo sapiens, UniProt P09619) (P09619 33-1106): as above

## CC(O)=C(C#N)C(=O)Nc1ccc(C(F)(F)F)cc1 [A77 1726]
[1]
  Platelet-derived growth factor-dependent tyrosine phosphorylation: inhibited by A77 1726 in intact cells at concentrations similar to EGF-dependent phosphorylation
[2]
  growth of A431 cells: inhibited growth of A431 cells

## N#CC(C(=O)Nc1ccc(C(F)(F)F)cc1)=C(O)c1cccc(Oc2ccccc2)c1 [Compound B16, 2-Propenamide, 2-cyano-3-hydroxy-3-((3-phenoxy)phenyl)-N-[(4-trifluoromethyl)phenyl]]
[3]
  CC50: 50 µM
[4]
  IC50: 35 µM

## O=C(NN=Cc1ccc(O)c(O)c1)C(=O)Nc1cccc([N+](=O)[O-])c1 [Compound E15]
[3]
  CC50: > 100 µM
[5]
  IC50: 4.4 µM
[6]; 15 mg/kg
  mortality at 336 h: 0%
[6]; 50 mg/kg
  mortality at 360 h: 12.5%
[6]; 100 mg/kg
  mortality at 192 h: 100%
[7]; Rattus norvegicus, C6 glioma, sc, at 15 mg/kg, read-out: C6 in vivo EFFICACY
  inhibition in vivo at 15 mg/kg: 66%
[7]; Rattus norvegicus, C6 glioma, sc, at 50 mg/kg, read-out: C6 in vivo EFFICACY
  inhibition in vivo at 50 mg/kg: 58%
[7]; Rattus norvegicus, C6 glioma, sc, at 100 mg/kg, read-out: C6 in vivo EFFICACY
  inhibition in vivo at 100 mg/kg: 0%
[8]; [15]
  IC50: 5 µM and 10 µM
[8]; read-out: U1242 KINASE IC50
  IC50: > 50 µM
[9]
  LD10: > 400 mg/kg
[4]
  IC50: 5 µM

## COc1cc2nc(Cl)c(-c3ccccc3)cc2c(OC)c1OC [Compound G11]
[10]
  CC50: 90 µM
[11]
  IC50: 20 µM
[4]
  IC50: 15 µM

## c1ccc(-c2cnc3ncccc3n2)cc1 [Compound G16]
[3]
  CC50: > 100 µM
[4]
  IC50: 35 µM

## O=C(c1ccccc1)c1ccc2ncc(-c3ccccc3)nc2c1 [Compound G21]
[10]
  CC50: > 100 µM
[5]
  IC50: > 12 µM
[6]; 40 mg/kg
  mortality: 0%
[7]; at 40 mg/kg
  C6 in vivo EFFICACY: no effect
[8]; [15]
  IC50: 6 µM
[8]; read-out: U1242 KINASE IC50
  IC50: > 50 µM
[9]
  LD10: > 200 mg/kg
[4]
  IC50: 6 µM

## Cc1ccc(C(=O)Nc2ccc(S(=O)(=O)O)c3cc(S(=O)(=O)O)cc(S(=O)(=O)O)c23)cc1NC(=O)c1cccc(NC(=O)Nc2cccc(C(=O)Nc3cc(C(=O)Nc4ccc(S(=O)(=O)O)c5cc(S(=O)(=O)O)cc(S(=O)(=O)O)c45)ccc3C)c2)c1 [suramin]
[12]
  receptor binding: interfere with receptor binding

## neomycin
[13]
  binding of PDGF-BB to the α-receptor: inhibited the binding of PDGF-BB to the α-receptor
[14]
  binding of PDGF-BB to the β-receptor: did not inhibit binding to the β-receptor
